Values joined by “and” are separate entries in the source; they are usually repeats but may differ in a detail not shown here. Equal entries are not always repeated. Where two headings read alike, the source gives them in different places.
Test: Tissue distribution of SHR9146 in mice after oral gavage of 40 mg/kg
Assay type: in vivo, ICR mice
Details: male, 40 mg/kg oral gavage; for concentration at 1 h / concentration at 3 h / concentration at 6 h: ICR, mouse, po
Description: ICR mice with body weight 16–26 g were supplied by Shanghai Lingchang Biotechnology Co., Ltd. (animal breeding license number SCXK (Shanghai) 2013-0018) and housed at Shanghai Institute of Materia Medica, Chinese Academy of Sciences [animal use license number SYXK (Shanghai) 2015-0027]. The mice used in this study were fasted overnight for 12 h but had free access to water. Food was supplied 4 h post-dose. All experiments in this study were conducted in accordance with the Guidelines for the Care and Use of Laboratory Animals of Shanghai Institute of Materia Medica, Chinese Academy of Sciences.
Another set of 30 mice were randomly assigned into five groups with equal numbers, males and females, for tissue distribution study with oral gavage at a single dose of 40 mg/kg at predetermined different time points: pre-dose and post dose at 1, 3, 6, and 24 h, respectively. The whole brain, heart, liver, spleen, lung, kidney, bladder, pancreas, testis, ovary, uterus, stomach, small intestine, adrenal gland, skin, skeletal muscle, thyroid gland, and abdominal fat tissues as well as the whole blood and plasma samples were harvested. Tissue samples were washed with 0.9% sodium chloride solution to remove the residual blood or contents, blotted on a filter paper, and stored at −70°C prior to the analysis.
Protein precipitation was selected for the pretreatment of both the plasma and the tissue homogenate prepared after thawing at room temperature, cut into pieces, and homogenized with a quintuple methanol–water mixture (1:1, v/v) for each tissue sample.
Briefly as follows, an aliquot of 25-μL plasma or tissue homogenate was spiked with 100 μL of internal standard solution (1 μg/mL for plasma, 0.2 μg/mL for tissue homogenate) and 300 μL of methanol added and vortex mixed for 60 s. The mixture was then centrifuged at 14,000 rpm at 4°C for 5.0 min, and the supernatant was diluted with methanol–water (4:1, v/v) in a ratio of 1:9 for the plasma or 1:1 for the tissue homogenate, and 5 μL of the resulting solution was injected for the LC-MS/MS analysis.
After oral administration of 40 mg/kg SHR9146, samples in different tissues at predetermined time points (pre-drug administration, post-drug administration at 1, 3, 6, and 24 h) were collected and prepared for the analysis. The drug concentrations of SHR9146 (μg/g or μg/mL) were determined for each mouse, and the mean and standard deviation were further obtained (Table S7).

[1] = 24 h, individual mice, 40 mg/kg

SHR9146 concentration in Pancreas (1 h, individual mice, 40 mg/kg): 15.265 µg/g and 8.681 µg/g
SHR9146 concentration in Plasma (1 h, individual mice, 40 mg/kg): 11.481 µg/mL and 5.761 µg/mL
SHR9146 concentration in Small intestine (1 h, individual mice, 40 mg/kg): 24.690 µg/g and 24.120 µg/g
SHR9146 concentration in Bladder (3 h, individual mice, 40 mg/kg): 0.390 µg/g and 6.162 µg/g and 6.598 µg/g
SHR9146 concentration in Brain (3 h, individual mice, 40 mg/kg): BLQ
SHR9146 concentration in Kidney (3 h, individual mice, 40 mg/kg): 0.314 µg/g and 6.873 µg/g and 7.165 µg/g
SHR9146 concentration in Lung (3 h, individual mice, 40 mg/kg): 0.798 µg/g and 7.286 µg/g and 7.382 µg/g
SHR9146 concentration in Pancreas (3 h, individual mice, 40 mg/kg): 0.231 µg/g and 7.160 µg/g and 7.228 µg/g
SHR9146 concentration in Brain (6 h, individual mice): BLQ
SHR9146 concentration in Abdominal fat (6 h, individual mice, 40 mg/kg): BLQ
SHR9146 concentration in Adrenal gland (6 h, individual mice, 40 mg/kg): BLQ and 0.313 μg/g
SHR9146 concentration in Bladder (6 h, individual mice, 40 mg/kg): BLQ and 0.199 μg/g
SHR9146 concentration in Heart (6 h, individual mice, 40 mg/kg): BLQ
SHR9146 concentration in Kidney (6 h, individual mice, 40 mg/kg): 0.159 µg/g and 0.129 µg/g and 0.344 µg/g
SHR9146 concentration in Liver (6 h, individual mice, 40 mg/kg): 0.702 µg/g and 0.351 µg/g and 0.845 µg/g
SHR9146 concentration in Lung (6 h, individual mice, 40 mg/kg): 0.510 µg/g and 0.701 µg/g
SHR9146 concentration in Pancreas (6 h, individual mice, 40 mg/kg): BLQ and 0.127 μg/g
SHR9146 concentration in Plasma (6 h, individual mice, 40 mg/kg): BLQ
SHR9146 concentration in Skeletal muscle (6 h, individual mice, 40 mg/kg): BLQ
SHR9146 concentration in Small intestine (6 h, individual mice, 40 mg/kg): BLQ and 0.152 μg/g
SHR9146 concentration in Spleen (6 h, individual mice, 40 mg/kg): BLQ
SHR9146 concentration in Whole blood (6 h, individual mice, 40 mg/kg): BLQ
SHR9146 concentration in thyroid gland (6 h, individual mice, 40 mg/kg): BLQ
SHR9146 concentration in Abdominal fat (24 h, individual mice): BLQ
SHR9146 concentration in Adrenal gland (24 h, individual mice): BLQ
SHR9146 concentration in Bladder (24 h, individual mice): BLQ
SHR9146 concentration in Brain (24 h, individual mice): BLQ
SHR9146 concentration in Heart (24 h, individual mice): BLQ
SHR9146 concentration in Pancreas (24 h, individual mice): BLQ
SHR9146 concentration in Plasma (24 h, individual mice): BLQ
SHR9146 concentration in Skeletal muscle (24 h, individual mice): BLQ
SHR9146 concentration in Small intestine (24 h, individual mice): BLQ
SHR9146 concentration in Spleen (24 h, individual mice): BLQ
SHR9146 concentration in Testis (24 h, individual mice): BLQ
SHR9146 concentration in Whole blood (24 h, individual mice): BLQ
SHR9146 concentration in thyroid gland (24 h, individual mice): BLQ
SHR9146 concentration in Kidney [1]: BLQ
SHR9146 concentration in Liver [1]: BLQ
SHR9146 concentration in Lung [1]: 0.064 µg/g and 0.105 µg/g
SHR9146 concentration in Skin [1]: BLQ
concentration at 1 h (abdominal fat, 40 mg/kg, 1 h, Mean (n=3), read-out: SHR9146 concentration in Abdominal fat): 7200 ng/g
concentration at 3 h (abdominal fat, 40 mg/kg, 3 h, Mean (n=3), read-out: SHR9146 concentration in Abdominal fat): 4070 ng/g
concentration at 6 h (abdominal fat, 40 mg/kg, 6 h, Mean (n=3), read-out: SHR9146 concentration in Abdominal fat): 75 ng/g
concentration at 1 h (adrenal gland, 40 mg/kg, 1 h, Mean (n=3), read-out: SHR9146 concentration in Adrenal gland): 23600 ng/g
concentration at 1 h (adrenal gland, 40 mg/kg, 1 h, individual mice, read-out: SHR9146 concentration in Adrenal gland): 24100 ng/g
concentration at 3 h (adrenal gland, 40 mg/kg, 3 h, Mean (n=3), read-out: SHR9146 concentration in Adrenal gland): 8450 ng/g
concentration at 6 h (adrenal gland, 40 mg/kg, 6 h, Mean (n=3), read-out: SHR9146 concentration in Adrenal gland): 163 ng/g
concentration at 6 h (adrenal gland, 40 mg/kg, 6 h, individual mice, read-out: SHR9146 concentration in Adrenal gland): 177 ng/g
concentration at 1 h (bladder, 40 mg/kg, 1 h, Mean (n=3), read-out: SHR9146 concentration in Bladder): 12400 ng/g
concentration at 1 h (bladder, 40 mg/kg, 1 h, individual mice, read-out: SHR9146 concentration in Bladder): 12500 ng/g
concentration at 3 h (bladder, 40 mg/kg, 3 h, Mean (n=3), read-out: SHR9146 concentration in Bladder): 4380 ng/g
concentration at 6 h (bladder, 40 mg/kg, 6 h, Mean (n=3), read-out: SHR9146 concentration in Bladder): 163 ng/g
concentration at 6 h (bladder, 40 mg/kg, 6 h, individual mice, read-out: SHR9146 concentration in Bladder): 291 ng/g
concentration at 1 h (brain, 40 mg/kg, 1 h, Mean (n=3), read-out: SHR9146 concentration in Brain): 1890 ng/g
concentration at 1 h (brain, 40 mg/kg, 1 h, individual mice, read-out: SHR9146 concentration in Brain): 2280 ng/g
concentration at 3 h (brain, 40 mg/kg, 3 h, Mean (n=3), read-out: SHR9146 concentration in Brain): 666 ng/g
concentration at 3 h (brain, 40 mg/kg, 3 h, individual mice, read-out: SHR9146 concentration in Brain): 1020 ng/g
concentration at 1 h (heart, 40 mg/kg, 1 h, Mean (n=3), read-out: SHR9146 concentration in Heart): 7320 ng/g
concentration at 1 h (heart, 40 mg/kg, 1 h, individual mice, read-out: SHR9146 concentration in Heart): 8420 ng/g
concentration at 3 h (heart, 40 mg/kg, 3 h, Mean (n=3), read-out: SHR9146 concentration in Heart): 2660 ng/g
concentration at 6 h (heart, 40 mg/kg, 6 h, Mean (n=3), read-out: SHR9146 concentration in Heart): 48 ng/g
concentration at 6 h (heart, 40 mg/kg, 6 h, individual mice, read-out: SHR9146 concentration in Heart): 61 ng/g
concentration at 1 h (kidney, 40 mg/kg, 1 h, Mean (n=3), read-out: SHR9146 concentration in Kidney): 11900 ng/g
concentration at 1 h (kidney, 40 mg/kg, 1 h, individual mice, read-out: SHR9146 concentration in Kidney): 12300 ng/g
concentration at 3 h (kidney, 40 mg/kg, 3 h, Mean (n=3), read-out: SHR9146 concentration in Kidney): 4780 ng/g
SMILES: OCCn1cc(-c2ccc(N3CCC([C@H]4c5c(F)cccc5-c5cncn54)CC3)cc2)cn1 [SHR9146]
SHR9146 concentration in Liver (3 h, individual mice, 40 mg/kg): 1.367 µg/g and 13.792 µg/g and 13.853 µg/g
SHR9146 concentration in Small intestine (3 h, individual mice, 40 mg/kg): 0.411 µg/g and 11.992 µg/g and 8.326 µg/g
